We go through one molecule from US20250002492A1, “COMPOSITIONS OF FOLATE ABSORPTION INHIBITORS AND METHODS THEREOF” (THE TEXAS A&M UNIVERSITY SYSTEM, priority 2023, published 2025).

Data set [1] deals with S. cerevisiae strain BY4742. In words: Cell size measurement in yeast (Z2 Channelyzer). In kind it is cell-based. As to conditions: from 47 fL. The method, then: (§1) In the instant example, methotrexate (MTX), or the ATIC inhibitor (ATIC-Inh), was dissolved in dimethylsulfoxide (DMSO) and used at the final concentrations shown in FIGS. 2B-2D. The cell size measurements shown in FIG. 3 were also done in strain BY4742 in YPD.
Briefly, overnight cultures were diluted to about 5×10^5 cells/mL in fresh media, allowed to proliferate for 2-3 h at 30° C., and then methotrexate was added at the indicated final concentrations. 4-5 h later, cell size was measured with a Z2 Channelyzer.

The subject of data set [2] is yeast cells. Kind of data set: Yeast cell proliferation. In kind it is cell-based, S. cerevisiae. As to conditions: low doses (0.5-10 μM); not shown.
For data set [3], the system named is Swiss mice. As to conditions: 0-10 ppm in the diet in alternating weeks, male and female, 7 to 120 weeks of age; 5 of the 8 conditions tested; one case p=0.04; cited from earlier work.
Data set [4] has as its system C. elegans strain N2. In words: Lifespan assay in worms. Type of data set: in vivo. The text has this:
The ability of pharmacological or other interventions to extend the lifespan of different organisms is often conserved. For the instant example, the disclosed compounds can be tested for their ability to extend the lifespan of the worm model system Caenorhabditis elegans (N2 strain) [see, e.g., PMID: 19488025]. The organisms can be first exposed to the compounds as adults, 2-3 days after the egg stage until their death, on solid media containing the compounds at the desired concentration. The temperature can be kept constant at 20° C. throughout the assays. The bacteria used as food for the worms (Escherichia coli strain OP-50) can be dead (e.g., killed by lethal doses of ultraviolet radiation) to ensure that any effects on lifespan are not indirect, mediated through bacterial metabolism.
The assays were performed at 20° C. using C. elegans strain N2 and a bacterial strain (OP50) commonly used as food for the worms. Briefly, the assays were performed on solid agar nematode growth media (NGM) plates prepared fresh before each experiment. The bacterial lawn was exposed twice to a UV dose of 120 mJ/cm^2 using a UVC-515 Ultraviolet Multilinker (Ultra-Lum, Inc.). Streaking these UV-exposed bacteria to fresh LB agar plates (1% w/v tryptone, 0.5% w/v yeast extract, 1% w/v sodium chloride) produced no visible colonies. Methotrexate, or the ATIC inhibitor, was first dissolved in DMSO and then added to the media used to prepare the plates after autoclaving (the media were kept in a 50° C. water bath until the plates were poured). Mock-treated control plates contained only DMSO. At the start of each experiment, a sufficient number of eggs were collected from plates without any drugs and then placed on plates containing the indicated doses of each compound tested. After hatching and progression to the adult stage, animals were transferred to new plates (marked as the start of the lifespan assay) containing the drug tested and fluorodeoxyuridine (FUDR; dissolved in water), added at 50 μM to block hatching of new animals. The plates were scored at least every other day until all the worms died. If an animal responded to gentle touch, it was scored as alive, otherwise a death was recorded, and the animal was removed from the plate. Worms were transferred to fresh plates as needed (e.g., if there was evidence of microbial contamination, dryness/cracks on the agar surface, consumption of the bacterial lawn, or hatching of new animals that escaped the FUDR block). The reported lifespans were compiled from several independent experiments done over several months (9-10 months for the methotrexate experiments and 4-5 months for the ATIC inhibitor), each scored by multiple individuals (4-5 persons per experiment). No experiments were excluded from the analysis.

The subject of data set [5] is C. elegans. As to conditions: 220 μM, treated at the adult stage; cited from earlier work.
The subject of data set [6] is mice. As to conditions: cited from earlier work.
In data set [7] the test system is S. cerevisiae strain BY4742. In words: Replicative lifespan assay in yeast. In kind it is cell-based. The method, then: The assays were performed in the standard S. cerevisiae strain BY4742 (MATα his3Δ1 leu2Δ0 lys2Δ0 ura3Δ0) on solid rich undefined media (YPD; 1% w/v yeast extract, 2% W/v peptone, 2% W/v dextrose, 2% w/v agar).
as §1

Where two headings read alike, the source gives them in different places.

For the molecule `CN(Cc1cnc2nc(N)nc(N)c2n1)c1ccc(C(=O)N[C@@H](CCC(=O)O)C(=O)O)cc1` [methotrexate, 4-amino-N10-methylpteroylglutamic acid], the values for the cell size in data set [1] (50 μM), in data set [1] (100 μM) and in data set [1] (concentrations up to 10 μM) were 56 fL, 64 fL and 52 fL, respectively. The “cell proliferation” value in data set [2] is “did not affect cell proliferation significantly”. The “mean lifespan vs control group” value in data set [3] was “mean lifespan was longer than in the control group”. This molecule also yielded a lifespan extension in data set [4] (1-3 μM, continuous exposure from embryo stage until death, p<2E-14 log-rank) of around 15%. Also, the “lifespan” value in data set [4] (higher doses 10-100 μM, not shown) is on record as “did not extend lifespan”; in data set [5], “did not extend their lifespan”. In addition, the 50% lethal dose (LD50) is listed as 59 mg/kg in data set [6] (5-week-old mice) and 284 mg/kg in data set [6] (16-week-old mice). Besides, the “yeast replicative lifespan” value in data set [7] (0.5-10 μM, p<0.05 log-rank test) is reported as “increased yeast replicative lifespan”. This molecule returned a maximal lifespan extension in data set [7] (dose 1 μM) of around 15%. The “yeast replicative longevity” value in data set [7] (higher concentrations (above 10 μM; 50-100 μM)) was “did not extend replicative longevity”.
